In paper PMC12486440, “Design, synthesis, and in silico studies of new benzofuran–pyrazole hybrids as multi-kinase inhibitors with potential antiproliferative activity” (RSC Advances, 2025):

Columns and labels:
[1] = test system: Leukemia subpanel; assay: NCI 60 subpanel summary; format: cell-based, human
[2] = test system: NSCL cancer subpanel; assay: NCI 60 subpanel summary; format: cell-based, human
[3] = test system: Prostate cancer subpanel; assay: NCI 60 subpanel summary; format: cell-based, human
[4] = target: B-Raf (V600E) (Homo sapiens, UniProt P15056, V600E); assay: B-Raf kinase inhibitory assay (Kinase-Glo Max); format: biochemical
Chain of B-Raf (V600E) (P15056 whole entry V600E): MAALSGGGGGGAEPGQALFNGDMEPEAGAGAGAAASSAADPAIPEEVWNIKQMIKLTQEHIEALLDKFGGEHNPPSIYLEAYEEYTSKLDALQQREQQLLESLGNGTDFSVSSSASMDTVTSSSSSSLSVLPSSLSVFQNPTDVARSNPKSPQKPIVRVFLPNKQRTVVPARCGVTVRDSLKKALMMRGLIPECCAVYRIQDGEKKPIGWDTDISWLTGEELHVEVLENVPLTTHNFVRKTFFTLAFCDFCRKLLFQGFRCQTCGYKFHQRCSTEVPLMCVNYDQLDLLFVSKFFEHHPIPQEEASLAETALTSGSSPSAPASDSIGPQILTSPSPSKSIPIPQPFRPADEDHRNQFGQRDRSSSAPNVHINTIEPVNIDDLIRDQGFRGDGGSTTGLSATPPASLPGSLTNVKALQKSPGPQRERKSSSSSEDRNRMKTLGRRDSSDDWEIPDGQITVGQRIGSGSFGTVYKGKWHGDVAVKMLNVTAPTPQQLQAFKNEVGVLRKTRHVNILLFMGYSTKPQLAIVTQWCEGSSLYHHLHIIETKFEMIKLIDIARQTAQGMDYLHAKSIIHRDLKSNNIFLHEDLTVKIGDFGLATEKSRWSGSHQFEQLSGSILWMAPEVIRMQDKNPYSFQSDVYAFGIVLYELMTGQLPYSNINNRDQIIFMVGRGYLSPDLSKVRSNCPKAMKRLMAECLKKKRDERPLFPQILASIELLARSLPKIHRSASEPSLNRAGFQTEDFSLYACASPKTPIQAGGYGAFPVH

[5] = target: T1, VEGFR-2 (Homo sapiens, UniProt P35968); assay: VEGFR-2 kinase inhibitory assay (Kinase-Glo MAX); format: biochemical
T1 construct: purchased
T1 sequence (P35968 20-1356): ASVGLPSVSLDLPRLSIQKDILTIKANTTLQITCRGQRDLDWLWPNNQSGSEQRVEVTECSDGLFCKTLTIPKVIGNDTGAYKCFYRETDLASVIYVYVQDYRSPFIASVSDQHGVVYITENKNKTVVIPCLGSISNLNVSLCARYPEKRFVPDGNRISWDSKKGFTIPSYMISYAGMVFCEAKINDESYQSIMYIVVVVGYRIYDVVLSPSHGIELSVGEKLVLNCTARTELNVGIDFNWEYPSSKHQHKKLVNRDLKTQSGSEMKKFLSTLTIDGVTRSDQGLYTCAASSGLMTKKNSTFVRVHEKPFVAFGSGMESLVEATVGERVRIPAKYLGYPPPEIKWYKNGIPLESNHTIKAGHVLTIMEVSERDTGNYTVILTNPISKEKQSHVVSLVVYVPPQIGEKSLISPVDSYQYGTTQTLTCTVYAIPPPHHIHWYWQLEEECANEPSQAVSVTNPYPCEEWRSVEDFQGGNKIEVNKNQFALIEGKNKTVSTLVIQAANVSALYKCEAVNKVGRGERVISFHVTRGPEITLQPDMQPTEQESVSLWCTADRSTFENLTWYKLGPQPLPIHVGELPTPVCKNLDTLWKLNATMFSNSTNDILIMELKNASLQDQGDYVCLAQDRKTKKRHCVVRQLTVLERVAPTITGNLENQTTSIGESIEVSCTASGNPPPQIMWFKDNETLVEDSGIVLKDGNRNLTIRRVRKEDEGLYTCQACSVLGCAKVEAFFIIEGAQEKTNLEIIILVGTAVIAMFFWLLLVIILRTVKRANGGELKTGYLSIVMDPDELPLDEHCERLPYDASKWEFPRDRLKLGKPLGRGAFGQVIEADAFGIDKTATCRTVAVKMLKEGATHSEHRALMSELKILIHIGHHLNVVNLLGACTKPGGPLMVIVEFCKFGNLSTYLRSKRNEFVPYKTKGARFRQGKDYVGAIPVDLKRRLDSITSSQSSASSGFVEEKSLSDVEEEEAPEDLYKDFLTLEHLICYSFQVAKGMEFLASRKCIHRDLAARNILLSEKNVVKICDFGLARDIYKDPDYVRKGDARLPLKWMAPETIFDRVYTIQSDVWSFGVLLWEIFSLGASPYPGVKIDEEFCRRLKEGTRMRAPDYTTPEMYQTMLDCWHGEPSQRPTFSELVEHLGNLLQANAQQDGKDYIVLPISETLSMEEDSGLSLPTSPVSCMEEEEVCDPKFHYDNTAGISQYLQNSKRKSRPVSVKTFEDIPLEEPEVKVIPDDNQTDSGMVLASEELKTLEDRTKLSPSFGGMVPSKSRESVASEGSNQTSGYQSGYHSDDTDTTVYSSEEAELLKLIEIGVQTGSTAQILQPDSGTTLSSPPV

[6] = test system: HL-60(TB); assay: cells; conditions: Homo sapiens
[7] = test system: NCI 60 cancer cell line panel; assay: NCI 60 full panel summary
[8] = test system: MOLT-4
[9] = test system: RPMI-8226; conditions: Homo sapiens, RPMI-8226
[10] = test system: HOP-92; conditions: Homo sapiens, HOP-92
[11] = test system: NCI-H226
[12] = test system: NCI-H460
[13] = test system: COLO 205; conditions: Homo sapiens, COLO 205
[14] = test system: HCC-2998
[15] = test system: SNB-19
[16] = test system: SNB-75
[17] = test system: MDA-MB-435
[18] = test system: SK-MEL-2
[19] = test system: SK-MEL-5
[20] = test system: UACC-62; conditions: Homo sapiens, UACC-62
[21] = test system: SK-OV-3; conditions: single dose 10 μM; ovarian carcinoma
[22] = test system: 786–0
[23] = test system: ACHN
[24] = test system: CAKI-1
[25] = test system: BT-549; conditions: Homo sapiens, BT-549
[26] = test system: MDA-MB-468; conditions: single dose 10 μM; breast carcinoma
[27] = test system: MDA-MB-231/ATCC; conditions: Homo sapiens
[28] = Homo sapiens, subpanel mean graph midpoint, read-out: MG-MID (GI50)
[29] = full panel MG-MID / subpanel MG-MID
[30] = single dose 10 μM, non-small lung carcinoma
[31] = single dose 10 μM, renal carcinoma

With `c1ccc(-n2cc(C3CC(c4nc5ccccc5[nH]4)=NN3)c(-c3cc4ccccc4o3)n2)cc1` (stereo not shown) [3d, 3-(Benzofuran-2-yl)-4-(3-(1H-benzo[d]imidazol-2-yl)-4,5-dihydro-1H-pyrazol-5-yl)-1-phenyl-1H-pyrazole] the GI50 [1, 28] was 3.23 µM, the Selectivity index [1, 29] was 1.30 and the GI50 [2, 28] was 4.02 µM. It also gave a Selectivity index [2, 29] of 1.04, a GI50 [3, 28] of 4.31 µM and a Selectivity index [3, 29] of 0.97. The IC50 [4] was 0.175 µM, the “times less sensitive, B-Raf (V600E), than to vemurafenib” value ([4]; ratio of IC50 values) was 2.8 and the IC50 [5] was 0.619 µM. The “times more effective at suppressing VEGFR-2 than sorafenib” value ([5]; ratio of IC50 values) was 4.1, the GI50 [6] was 2.56 µM and the GI50 ([7]; Homo sapiens, read-out: Full panel MG-MID (GI50), five-dose assay, mean graph midpoint over full panel) was 4.2 µM. The CC50 ([7]; Homo sapiens, read-out: LC50) was greater than 100 µM, the “Mean GI%” value ([7]; single dose 10 μM, mean over the NCI 60 panel) was 83.58% and the GI50 ([8]; Homo sapiens, MOLT-4) was 4.13 µM. For the same compound, the GI% ([8]; single dose 10 μM, leukemia) was 88.75%, the GI50 [9] was 3.04 µM and the GI50 [10] was 4.78 µM. The GI50 ([11]; Homo sapiens, NCI-H226) was 6.62 µM, the GI% [11, 30] was 34.35% and the GI50 ([12]; Homo sapiens, NCI-H460) was 3.64 µM. The GI% [12, 30] was 97.07%, the GI50 [13] was 5.28 µM and the GI50 ([14]; Homo sapiens, HCC 2998) was 5.25 µM. For the same compound, the GI% ([14]; single dose 10 μM, colon cancer) was 70.76%, the GI50 ([15]; Homo sapiens, SNB-19) was 3.77 µM and the GI% ([15]; single dose 10 μM, CNS cancer) was 92.86%. For the same compound, the GI50 ([16]; Homo sapiens, SNB-75) was 2.72 µM, the GI% ([16]; single dose 10 μM, CNS cancer) was 65.51% and the GI50 ([17]; Homo sapiens, MDA-MB-435) was 4.24 µM. The GI% ([17]; single dose 10 μM, melanoma) was 83.49%, the GI50 ([18]; Homo sapiens, SK-MEL-2) was 2.53 µM and the GI% ([18]; single dose 10 μM, melanoma) was 99.44%. The GI50 ([19]; Homo sapiens, SK-MEL-5) was 2.76 µM, the GI% ([19]; single dose 10 μM, melanoma) was 90.42% and the GI50 [20] was 1.84 µM. It also gave a GI% [21] of 62.21%, a GI50 ([22]; Homo sapiens, 786-0) of 4.31 µM and a GI% [22, 31] of 71.73%. For the same compound, the GI50 ([23]; Homo sapiens, ACHN) was 3.11 µM, the GI% [23, 31] was 92.45% and the GI50 ([24]; Homo sapiens, CAKI-1) was 2.57 µM. For the same compound, the GI% [24, 31] was 92.45%, the GI50 [25] was 3.85 µM and the GI% [26] was 70.95%. The GI50 [27] was 4.78 µM.
